Data: ChEMBL document CHEMBL5042503, “"Clickable" Albumin Binders for Modulating the Tumor Uptake of Targeted Radiopharmaceuticals” (J Med Chem, 2022)
pKd: −log10 of the molar value.

Target: T1, Albumin (Homo sapiens, UniProt P02768)
Test: Binding affinity to human serum albumin assessed as dissociation constant by isothermal titration calorimetry
Settings: not given

T1 sequence (P02768 whole entry): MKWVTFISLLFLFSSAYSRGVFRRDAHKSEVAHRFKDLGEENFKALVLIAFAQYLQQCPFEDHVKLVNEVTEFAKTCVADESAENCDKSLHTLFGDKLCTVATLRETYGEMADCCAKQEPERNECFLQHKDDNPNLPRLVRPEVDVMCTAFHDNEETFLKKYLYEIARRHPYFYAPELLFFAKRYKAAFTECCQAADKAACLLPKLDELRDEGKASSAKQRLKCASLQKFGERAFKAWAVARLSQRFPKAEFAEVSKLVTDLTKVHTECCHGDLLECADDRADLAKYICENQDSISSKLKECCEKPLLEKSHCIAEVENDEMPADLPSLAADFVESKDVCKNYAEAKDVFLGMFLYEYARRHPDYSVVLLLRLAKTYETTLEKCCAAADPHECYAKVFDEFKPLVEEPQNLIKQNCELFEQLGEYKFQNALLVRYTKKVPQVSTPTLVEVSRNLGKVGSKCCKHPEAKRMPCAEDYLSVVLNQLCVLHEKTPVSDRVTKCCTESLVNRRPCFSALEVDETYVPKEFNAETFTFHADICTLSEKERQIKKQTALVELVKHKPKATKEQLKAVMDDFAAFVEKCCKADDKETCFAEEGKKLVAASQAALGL

Row | Molecule | pKd
1 | CC(=O)N[C@H](CCCCNC(=O)CCCc1ccc(I)cc1)C(=O)O | 5.49
2 | CC(=O)N[C@@H](CCCCNC(=O)CCCc1ccc(I)cc1)C(=O)O | 5.05

Tested on: not listed separately
Test: Lipophilicity, logD of compound at pH 7.4 under shaking condition by HPLC analysis
Assay type: physicochemical
Settings: buffer

Row | Molecule | logD
3 | [N-]=[N+]=Nc1ccc(C(=O)N[C@@H](CCCCNC(=O)CCCc2ccc(I)cc2)C(=O)O)cc1 | 1.75
4 | [N-]=[N+]=Nc1ccc(C(=O)N[C@@H](CCCCNC(=O)CCCc2ccc(I)cc2)C(N)=O)cc1 | 3.13

Target: T1, Albumin
Test: Binding affinity to human serum albumin assessed as dissociation constant using N-alpha-(6-FAM)-N-epsilon-(4-Iodophenylbutanoyl)-D-lysine as substrate and measured after 5 mins by fluorescence based competition assay
Settings: not given

Row | Molecule | pKd
5 | O=C(CCCc1ccc(I)cc1)NCCCC[C@@H](NC(=O)c1ccc(C(=O)O)c(-c2c3ccc(=O)cc-3oc3cc(O)ccc23)c1)C(=O)O | 6.64

Target: T1, Albumin
Test: Binding affinity to human serum albumin assessed as dissociation constant and measured after 5 mins by fluorescence based competition assay
Settings: not given

Row | Molecule | pKd
6 | [N-]=[N+]=Nc1ccc(C(=O)N[C@@H](CCCCNC(=O)CCCc2ccc(Cl)cc2)C(=O)O)cc1 | 5.46
7 | CC(=O)N[C@@H](CCCCNC(=O)CCCc1ccc(I)cc1)C(N)=O | 4.15
8 | O=C(CCCc1ccc(I)cc1)NCCCC[C@H](C(=O)O)n1cc(-c2ccccc2)nn1 | 5.40
9 | C#Cc1ccc(C(=O)N[C@@H](CCCCNC(=O)CCCc2ccc(I)cc2)C(=O)O)cc1 | 6.47
10 | C#CCCC(=O)N[C@H](CCCCNC(=O)CCCc1ccc(I)cc1)C(=O)O | 5.14
11 | [N-]=[N+]=Nc1ccc(C(=O)N[C@@H](CCCCNC(=O)CCCc2ccc(I)cc2)C(=O)O)cc1 | 6.44
12 | [N-]=[N+]=Nc1ccc(C(=O)N[C@@H](CCCCNC(=O)CCCc2ccc(C(F)(F)F)cc2)C(=O)O)cc1 | 5.39
13 | [N-]=[N+]=Nc1ccc(C(=O)N[C@@H](CCCCNC(=O)CCCc2ccc(F)cc2)C(=O)O)cc1 | 4.59
14 | NC(=O)[C@H](CC(=O)O)NC(=O)CCCc1ccc(I)cc1 | 4.00
15 | Cc1ccc(CCCC(=O)NCCCC[C@H](NC(=O)c2ccc(N=[N+]=[N-])cc2)C(=O)O)cc1 | 5.52
16 | [N-]=[N+]=Nc1ccc(C(=O)N[C@@H](CCCCNC(=O)CCCc2ccc(Br)cc2)C(=O)O)cc1 | 5.70
17 | CC(=O)N[C@H](CCCCNC(=O)CCCc1ccc(I)cc1)C(=O)O | 5.15
18 | [N-]=[N+]=Nc1ccc(C(=O)N[C@@H](CCCCNC(=O)CCCc2ccccc2)C(=O)O)cc1 | 4.44
19 | CC(C)Cc1ccc(C(C)C(=O)NCCCC[C@H](NC(=O)c2ccc(N=[N+]=[N-])cc2)C(=O)O)cc1 (stereo not given in full) | 5.40
20 | NC(=O)[C@H](CCC(=O)O)NC(=O)CCCc1ccc(I)cc1 | 4.10
21 | [N-]=[N+]=Nc1ccc(C(=O)N[C@H](CCCCNC(=O)CCCc2ccc(I)cc2)C(=O)O)cc1 | 5.92
22 | O=C(O)CN1CCN(CC(=O)O)CCN(C(CCC(=O)N[C@@H](CCCCNC(=O)CCCc2ccc(I)cc2)C(=O)O)C(=O)O)CC1 (stereo not given in full) | 5.10
23 | COC(=O)[C@H](CCCCNC(=O)CCCc1ccc(I)cc1)NC(C)=O | 3.96
24 | [N-]=[N+]=NCCCCC(=O)N[C@H](CCCCNC(=O)CCCc1ccc(I)cc1)C(=O)O | 5.10
25 | [N-]=[N+]=NCCCCC(=O)N[C@@H](CCCCNC(=O)CCCc1ccc(I)cc1)C(=O)O | 5.22
26 | CC(=O)N[C@@H](CCCCNC(=O)CCCc1ccc(I)cc1)C(=O)O | 5.49

Target: Somatostatin receptor type 2 (Mus musculus) (UniProt P30875)
Test: Binding affinity to mouse SST2 expressed in mouse pheochromocytoma cells assessed as maximum binding capacity for 1 hr by Nanodrop spectrophotometric analysis
Assay type: cell-based
Settings: Pheochromocytoma cell

Sequence of Somatostatin receptor type 2 (Mus musculus) (P30875 whole entry): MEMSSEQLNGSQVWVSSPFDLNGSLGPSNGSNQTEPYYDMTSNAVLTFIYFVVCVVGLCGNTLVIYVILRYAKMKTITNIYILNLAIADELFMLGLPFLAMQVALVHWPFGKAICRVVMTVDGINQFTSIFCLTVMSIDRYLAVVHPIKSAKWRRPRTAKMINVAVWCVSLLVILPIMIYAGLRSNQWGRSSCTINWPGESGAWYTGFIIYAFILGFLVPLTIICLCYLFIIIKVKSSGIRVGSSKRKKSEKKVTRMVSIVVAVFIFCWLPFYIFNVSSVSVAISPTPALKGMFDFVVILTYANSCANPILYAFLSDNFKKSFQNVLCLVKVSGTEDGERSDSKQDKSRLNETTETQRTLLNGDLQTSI

Row | Molecule | Bmax
27 | [64Cu]Cu-NODAGA-TATE | 383 fmol/mg
28 | [64Cu]Cu-DOTA-TATE | 779 fmol/mg

Target: T1, Albumin
Test: Binding affinity to human serum albumin assessed as dissociation constant and measured after 5 mins by MST assay
Settings: not given

Row | Molecule | pKd
29 | CC(=O)N[C@H](CCCCNC(=O)CCCc1ccc(I)cc1)C(=O)O | 5.10
30 | [N-]=[N+]=Nc1ccc(C(=O)N[C@H](CCCCNC(=O)CCCc2ccc(I)cc2)C(=O)O)cc1 | 5.59
